# From patent publication WO2014051359A1, “Pharmaceutical composition comprising neferine as active ingredient for preventing or treating hepatoma” (Pukyong National University, priority 2012, dated 2014)
# Experiments:
# Hep3B [1] = test: Cell viability assay (WST-1), Hep3B; format: cell-based; settings: 24 h
# Sk-Hep1 = test: Cell viability assay (WST-1), Sk-Hep1; format: cell-based
# [2] = Cell viability assay (WST-1), THLE-3; format: cell-based; settings: human, thle-3 cells, THLE-3, 30 μM, read-out: survival rate of the cells
# THLE-3 = test: Cell viability assay (WST-1), THLE-3; format: cell-based; settings: THLE-3, 5-30 μM, 24 h
# Hep3B [3] = test: DAPI assay, nuclear condensation / apoptosis induction; format: cell-based; settings: 20, 25 μM
# Hep3B [4] = test: Cell cycle analysis by flow cytometer (propidium iodide); format: cell-based; settings: for sub-G1 cell population: 24 h (untreated 1.35%)
# Hep3B [5] = test: Western blot of cell cycle-related proteins; format: cell-based; settings: 15, 20, 25 μM, 24 h
# Hep3B [6] = test: Immunofluorescence, p21Waf1/Cip1; format: cell-based; settings: 15 μM, 12 h; vs untreated
# Hep3B [7] = test: Western blot of Bcl-2 family and apoptotic proteins; format: cell-based; settings: 15, 20, 25 μM, 24 h
# Hep3B [8] = test: Immunofluorescence, cleaved caspase-8 and -3; format: cell-based; settings: 15 μM, 12 h; vs untreated
# Hep3B [9] = test: Western blot of endoplasmic reticulum chaperone proteins; format: cell-based; settings: 20 μM, depending on time
# Hep3B [10] = test: Immunofluorescence, caspase-12 (endoplasmic reticulum stress); format: cell-based; settings: 15 μM, 12 h
# [11] = tested on: Hep3B cells transformed with GFP-LC3B plasmid; test: Autophagosome formation in GFP-LC3B transformed cells, fluorescence microscopy; format: cell-based; settings: 20 μM, over time (6, 12, 18, 24)
# Hep3B [12] = test: Western blot of LC3B; format: cell-based; settings: 15, 20, 25 μM, 12 h; vs untreated
# HUVECs = test: Tube formation assay (angiogenesis, in vitro); format: cell-based, human; settings: for degree of tube formation (total tube length, converted to percent): 18 h (untreated 222)
# Hep3B [13] = test: Wound-healing assay (cell migration); format: cell-based
structure (smiles),measurement,setting,value
"COc1ccc(C[C@@H]2c3cc(Oc4cc(C[C@@H]5c6cc(OC)c(OC)cc6CCN5C)ccc4O)c(OC)cc3CCN2C)cc1 [neferine, 4-[[(1R)-6,7-Dimethoxy-2-methyl-3,4-dihydro-1H-isoquinolin-1-yl]methyl]-2-[[(1R)-6-methoxy-1-[(4-methoxyphenyl)methyl]-2-methyl-3,4-dihydro-1H-isoquinolin-7-yl]oxy]phenol]",cell suppression,Hep3B [1]; 10 μM or more,marked cell suppression
same,cell viability (concentration dependence),Hep3B [1]; 5-30 μM,significant decrease in cell viability depending on the neferrin treatment concentration
same,viability at 30 µM,"Hep3B [1]; Homo sapiens, read-out: cell viability",< 10%
same,viability at 30 µM,"Sk-Hep1; Homo sapiens, SK-HEP1, 24 h, read-out: survival rate of the cells",~90%
same,cytotoxicity,"Sk-Hep1; Sk-Hep1, 5-30 μM, 24 h",did not show cytotoxicity
same,"viability at 24 h, 30 µM",[2],~90%
same,cytotoxicity,THLE-3,did not show cytotoxicity
same,"nuclear membrane changes (shrinkage, blebbing)","Hep3B [3]; 6 h after treatment, vs untreated",세포들의 응축(shrinkage) 및 파열(blebbing)과 같은 핵 막 변화가 나타나는
same,nuclear condensation (apoptosome formation),Hep3B [3]; 24 h after treatment,핵 응축(apoptosome formation)이 관찰되었다
same,sub-G1 cell population,Hep3B [4]; 15 μM,4.78%
same,increase of G1/S phase compared to untreated group,"Hep3B [4]; 20 μM, 24 h",approximately 9%
same,sub-G1 cell population,Hep3B [4]; 20 μM,16.01%
same,sub-G1 cell population (concentration dependence),"Hep3B [4]; 15, 20, 25 μM, 24 h",sub-G1 cell population increases in proportion to the neferrin treatment concentration
same,CDK4 protein expression,Hep3B [5],down regulation
same,E2F-1 protein expression,Hep3B [5],down regulation
same,c-Myc protein expression,Hep3B [5],down regulation
same,cyclin D1 protein expression,Hep3B [5],down regulation
same,cyclin D3 protein expression,Hep3B [5],down regulation
same,p21 Waf1/Cip1 protein expression,Hep3B [5],expression was increased
same,phosphorylation of cdc2,Hep3B [5],dephosphorylation of cdc2
same,expression level of p21 Waf1/Cip1 protein around the nucleus in the cytoplasm,Hep3B [6],두드러지게 증대
same,Bak protein expression,Hep3B [7],significantly increased
same,Bax protein expression,Hep3B [7],slightly increased
same,Bid protein expression,Hep3B [7],slightly increased
same,Bim protein expression,Hep3B [7],slightly increased
same,Puma protein expression,Hep3B [7],significantly increased
same,caspase-3 protein expression,Hep3B [7],decrease depending on the treatment concentration
same,cleaved PARP protein expression,Hep3B [7],markedly increased
same,cleaved caspase-6 protein expression,Hep3B [7],markedly increased
same,cleaved caspase-3 expression,Hep3B [8],markedly expressed
same,cleaved caspase-8 expression,Hep3B [8],markedly expressed
same,Bip protein expression level,Hep3B [9],significantly up-regulate
same,PDI protein expression level,Hep3B [9],significantly up-regulate
same,calnexin protein expression level,Hep3B [9],significantly up-regulate
same,calpain2 protein expression level,Hep3B [9],significantly up-regulate
same,caspase-12 protein expression level,Hep3B [9],significantly up-regulate
same,expansion of the endoplasmic reticulum (caspase-12 staining),Hep3B [10],소포체의 확장을 관찰
same,number of autophagosomes in the cytoplasm (GFP-LC3B dots),[11],자가포식소체 수가 세포질 내에서 증가
same,size and number of vacuoles,[11],시간 의존적으로 더 크고 많이 증가
same,vacuole formation in the cytoplasm,[11],소체(vacuole) 형성이 발생
same,expression of LC3B around the membrane,Hep3B [12],농도 의존적으로 증가
same,"degree of tube formation (total tube length, converted to percent)",HUVECs; 10 μM,216%
same,"degree of tube formation (total tube length, converted to percent)",HUVECs; 20 μM,202%
same,"degree of tube formation (total tube length, converted to percent)",HUVECs; 30 μM,146%
same,formation of cellular vascular structures,"HUVECs; 10, 20, 30 μM, 18 h",suppression of the formation of cellular vascular structures
same,"tube length (px), concentration dependence","HUVECs; 10, 20, 30 μM, 18 h",tube length (px) is reduced depending on the neferrin concentration
same,inhibition at 15 µM,"Hep3B [13]; Homo sapiens, Hep3B, 15 μM, 72 h, vs increased migration in untreated group, read-out: reduction of cell coverage area",~20%
same,cell migration,Hep3B [13]; images at 12 h intervals,cell migration was suppressed depending on the neferrin treatment concentration
